According to paper PMC11767673 (2024):

Key:
[1] = system: OR7 aptamer (DNA, aptamer) CAAGGAAAATCCTTCAACGAAGTGGG; test: transmembrane electrochemical impedance spectroscopy (ADuCM350 impedance reader), Langmuir fit; conditions: 137 mM NaCl, 2.7 mM KCl, 5 mM MgCl2; PBS pH 7.4, 3% DMSO, room temperature; aptamer immobilised on membrane
[2] = system: OR7 aptamer (DNA, aptamer) CAAGGAAAATCCTTCAACGAAGTGGG; test: transmembrane electrochemical impedance spectroscopy (commercial potentiostat), Langmuir fit; conditions: 137 mM NaCl, 2.7 mM KCl, 5 mM MgCl2; PBS pH 7.4, 3% DMSO, room temperature; aptamer immobilised on membrane
[3] = system: OR7 aptamer (DNA, aptamer) CAAGGAAAATCCTTCAACGAAGTGGG; test: transmembrane electrochemical impedance spectroscopy (potentiostat and impedance reader); conditions: 137 mM NaCl, 2.7 mM KCl, 5 mM MgCl2; PBS pH 7.4, 3% DMSO, room temperature; aptamer immobilised on membrane; control, highest concentration not given

KD [1] [nM]	KD [2] [nM]	binding [3]	Structure (SMILES)
4	2		CCN(CC)Cc1cc(Nc2ccnc3cc(Cl)ccc23)ccc1O
		no	CCN(CC)CCCC(C)Nc1ccnc2cc(Cl)ccc12 (stereo not drawn)
